From paper PMC12539213, “Molecular targeting of the deubiquitinase USP14 to circumvent cisplatin resistance in ovarian carcinoma and identification of novel inhibitors” (Cancer Drug Resistance, 2025)

Columns and labels:
[1] = molecular target: T1, USP14 (ubiquitin-specific protease 14) (Homo sapiens, UniProt P54578); test: Ub-Rho110-G hydrolysis assay, recombinant USP14 with Ub-VS-treated […] proteasome, dose-response; assay type: biochemical
T1 construct: USP14 (6His-tagged), 64-0018-050, Ubiquigent; with Ub-VS-treated human 26S proteasome
T1 sequence (P54578 whole entry): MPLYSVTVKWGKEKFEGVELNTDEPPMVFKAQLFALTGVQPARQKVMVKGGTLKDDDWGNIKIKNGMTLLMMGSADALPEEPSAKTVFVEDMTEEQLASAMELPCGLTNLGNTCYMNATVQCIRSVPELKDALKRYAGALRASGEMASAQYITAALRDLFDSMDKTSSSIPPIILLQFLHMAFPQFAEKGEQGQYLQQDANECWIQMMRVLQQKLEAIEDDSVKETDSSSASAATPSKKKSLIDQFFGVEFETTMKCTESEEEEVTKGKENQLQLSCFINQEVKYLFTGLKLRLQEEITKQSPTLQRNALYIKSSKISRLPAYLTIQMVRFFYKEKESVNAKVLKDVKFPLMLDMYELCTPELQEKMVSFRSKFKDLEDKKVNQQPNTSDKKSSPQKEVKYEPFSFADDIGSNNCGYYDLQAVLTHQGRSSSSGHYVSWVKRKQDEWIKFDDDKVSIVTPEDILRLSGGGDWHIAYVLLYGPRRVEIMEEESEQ

[2] = molecular target: T1, USP14 (ubiquitin-specific protease 14); test: Ub-Rho110-G hydrolysis assay, positive control at […] ([…] inhibition) and […] ([…]); also HA-Ub-VS labeling in IGROV-1/Pt1 cells; assay type: biochemical

IC50 [1] | SMILES | IC50 [2]
18.4 ± 2.2 µM | CC1=NN(c2cccc(NC(=O)c3ccccc3Cn3ccnc3)c2)C(=O)C1 [ARN12502] | –
– | Cc1cc(C(=O)CN2CCCCC2)c(C)n1-c1ccc(Cl)cc1 [IU1-47] | ~ 200 nM
